Experimental data taken from patent US20100273189A1, “NON SEPARATION ASSAYS WITH SELECTIVE SIGNAL INHIBITORS” (BECKMAN COULTER, INC., priority 2009, published 2010).

Target: T1, biotinylated HRP (Armoracia rusticana, UniProt P00433)
T1 construct: purchased Roche Diagnostics, Indianapolis, Ind., USA
T1 sequence (P00433 31-338 limits assumed): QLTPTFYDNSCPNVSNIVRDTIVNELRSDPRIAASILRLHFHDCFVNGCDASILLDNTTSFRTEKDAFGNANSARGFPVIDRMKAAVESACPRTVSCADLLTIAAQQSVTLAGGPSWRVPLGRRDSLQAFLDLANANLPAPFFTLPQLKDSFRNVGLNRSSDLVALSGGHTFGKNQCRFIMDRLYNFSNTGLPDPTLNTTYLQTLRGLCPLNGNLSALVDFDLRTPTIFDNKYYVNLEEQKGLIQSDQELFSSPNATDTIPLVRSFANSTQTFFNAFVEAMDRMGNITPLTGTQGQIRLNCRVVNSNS
Assay: Model system for selection of SSIA (M280 btn-BSA-AK1-streptavidin particles + Btn-HRP:HRP)
Format: biochemical
Conditions: for S/S0: Btn-HRP 0 ng/mL vs 0; for S/S0 / S1/S0 / S2/S0 / S3/S0 / S4/S0 / effect in the model system / utility as SSIA: SSIA 100 μM; for B-HRP0 light intensity: Btn-HRP 0 ng/mL; for B-HRP0 light intensity / B-HRP1 light intensity / B-HRP10 light intensity / B-HRP100 light intensity / B-HRP250 light intensity: total HRP 500 ng/mL, SSIA final 100 μM; for S1/S0: Btn-HRP 1 ng/mL vs 0; for B-HRP1 light intensity: Btn-HRP 1 ng/mL; for S2/S0: Btn-HRP 10 ng/mL vs 0; for B-HRP10 light intensity: Btn-HRP 10 ng/mL; for S3/S0: Btn-HRP 100 ng/mL vs 0; for B-HRP100 light intensity: Btn-HRP 100 ng/mL; for S4/S0: Btn-HRP 250 ng/mL vs 0; for B-HRP250 light intensity: Btn-HRP 250 ng/mL; for effect in the model system / utility as SSIA: conclusion in words
Protocol: The model system uses a microparticle conjugated to BSA (bovine serum albumin) labeled with a […] and acridan ketenedithioacetal chemiluminescent label (AK1) as the chemiluminescent-labeled sbp, and biotinylated HRP as the activator-labeled specific binding pair. In the model system, varying amounts of Btn-HRP is added to the chemiluminescent-labeled specific binding pair at 0, 1, 10, 100 and 250 ng/mL. Additional unlabeled HRP is added to reach a total HRP of concentration of 500 ng/mL in each reaction mixture. The unlabeled HRP in combination with the activator-labeled sbp was provided to the chemiluminescent-labeled sbp microparticles to emulate sample. A compound for assessment as an SSIA was also added. This reaction mixture of the model system is then triggered by addition of trigger solution in a manner of assays of the present disclosure.
To prepare the chemiluminescent-labeled sbp on microparticles, Bovine Serum Albumin (BSA) was biotinylated with 4× molar excess of biotin-LC-sulfoNHS (Pierce Biotechnology Inc., Rockford, Ill., USA). Unbound reactants were removed via desalting or dialysis. The biotin-BSA was then reacted with a 5× molar excess of acridan ketenedithioacetal AK1 in 20 mM sodium phosphate pH 7.2: DMSO 75:25, v/v) followed by desalting in the same buffer. The dual labeled (biotin and AK1) BSA was then coupled with tosyl activated M-280 microparticles (Invitrogen Corporation, Carlsbad, Calif., USA) in a 0.1 M borate buffer pH 9.5 at a concentration of ca. 20 μg labeled BSA per mg of microparticles for 16-24 h at 40° C. After coupling the microparticles were stripped for 1 h at 40° C. with 0.2 M TRIS base, 2% SDS, pH ˜11. The stripping process was repeated one additional time. Microparticles were then suspended in a 0.1% BSA/TRIS buffered saline (BSA/TBS) buffer and streptavidin (SA) was added at approximately 15 μg SA per mg microparticles. Streptavidin was mixed with the microparticles for 45-50 min at room temperature. The microparticles were then washed three times and suspended in the same BSA/TBS.
HRP, (Roche Diagnostics, Indianapolis, Ind., USA) was biotinylated with 4× molar excess of biotin-LC-sulfoNHS (Pierce Biotechnology Inc., Rockford, Ill., USA). Unbound reactants were removed via desalting or dialysis.
Each SSIA compound for assessment was dissolved in Buffer II at a concentration at least 10× of final concentration of the reaction mixture (after the addition of the trigger solution)
Paramagnetic particles (PMP): (M280)-(btn-BSA-AK)-(Streptavidin);
Sample Emulator: B-HRP:HRP; 500 ng/mL total with titration of B-HRP:HRP at Total HRP concentration of 500 ng/mL, with Btn-HRP variations: 0, 1, 10, 100 and 250 ng/mL.
SSIA: According to tables below in BUFFER II targeted to give a final concentration of 100 μM.
Trigger solution A is defined above.
5 μl of 1 mg/ml of dual-labeled (biotin and AK1) BSA M280 particles were mixed with 45 μl of working concentration SSIA in Buffer II. The assay volume brought to […] by adding 15 μl of Buffer II. 15 μl of sample containing Btn-HRP:HRP at different ratios (The amount of biotinylated-HRP varied from 0, 1, 10, 100 and 250 ng/mL) was added. The reaction mixture was incubated for 30 min at 37° C., then 100 μL of trigger solution was added and the light intensity recorded. Total volume of reaction mixture, including trigger solution was […] with a final concentration of 100 μM of SSIA.

Cc1c(C)c2c(c(C)c1O)CC[C@@](C)(CCC[C@H](C)CCC[C@H](C)CCCC(C)C)O2 (racemic) [(+/−)-alpha-Tocopherol, (±)-a-Tocopherol]
S/S0: 1
B-HRP0 light intensity: 2,772
S1/S0: 2.3
B-HRP1 light intensity: 6,468
S2/S0: 452.1
B-HRP10 light intensity: 1,253,187
S3/S0: 3088.2
B-HRP100 light intensity: 8,560,469
S4/S0: 3473.4
B-HRP250 light intensity: 9,628,184

O=C(O)CCCC[C@@H]1CCSS1 (racemic) [Lipoic Acid]
S/S0: 1
B-HRP0 light intensity: 35,016
S1/S0: 2
B-HRP1 light intensity: 71,751
S2/S0: 70
B-HRP10 light intensity: 2,450,949
S3/S0: 246.9
B-HRP100 light intensity: 8,647,037
S4/S0: 252.7
B-HRP250 light intensity: 8,847,921
effect in the model system / utility as SSIA: no effect

Oc1ccc(O)c(Cl)c1 [2-chloro-1,4-dihydroxybenzene]
S/S0: 1
B-HRP0 light intensity: 3,571
S1/S0: 1.1
B-HRP1 light intensity: 4,007
S2/S0: 52.9
B-HRP10 light intensity: 188,920
S3/S0: 170.8
B-HRP100 light intensity: 610,053
S4/S0: 245.3
B-HRP250 light intensity: 875,831
effect in the model system / utility as SSIA: demonstrating utility as SSIA

Nc1ccc(C(=O)O)cc1O [4-Amino-3-hydroxybenzoic acid, 4-amino-3-hydroxybenzoic acid]
S/S0: 1
B-HRP0 light intensity: 972
S1/S0: 2.9
B-HRP1 light intensity: 2,808
S2/S0: 454.2
B-HRP10 light intensity: 441,455
S3/S0: 6076.7
B-HRP100 light intensity: 5,906,521
S4/S0: 6587.9
B-HRP250 light intensity: 6,403,425
effect in the model system / utility as SSIA: demonstrating utility as SSIA

Cl.Nc1ccc(O)cc1O [4-aminoresorcinol HCl, 4-aminoresorcinol hydrochloride]
S/S0: 1
B-HRP0 light intensity: 675
S1/S0: 1.7
B-HRP1 light intensity: 1,163
S2/S0: 110.8
B-HRP10 light intensity: 74,764
S3/S0: 489
B-HRP100 light intensity: 330,056
S4/S0: 384.5
B-HRP250 light intensity: 259,541
effect in the model system / utility as SSIA: demonstrating utility as SSIA

Oc1ccc(Cl)cc1O [4-chlorocatechol]
S/S0: 1
B-HRP0 light intensity: 93
S1/S0: 2.2
B-HRP1 light intensity: 205
S2/S0: 14.8
B-HRP10 light intensity: 1,373
S3/S0: 4910.8
B-HRP100 light intensity: 456,707
S4/S0: 13558.5
B-HRP250 light intensity: 1,260,937
effect in the model system / utility as SSIA: demonstrating utility as SSIA

CC1(C)OC[C@@H]([C@H]2OC(=O)C(O)=C2O)O1 [5,6iso-propyliene ascorbic acid, 5,6-Isopropylidene-L-Ascorbic acid]
S/S0: 1
B-HRP0 light intensity: 264
S1/S0: 3.6
B-HRP1 light intensity: 961
S2/S0: 112.3
B-HRP10 light intensity: 29,645
S3/S0: 18626.9
B-HRP100 light intensity: 4,917,499
S4/S0: 33275
B-HRP250 light intensity: 8,784,595
effect in the model system / utility as SSIA: demonstrating utility as SSIA

Cc1c(O)cc2c(c1C)O[C@](C)(CCC[C@H](C)CCC[C@H](C)CCCC(C)C)CC2 [(+)-gamma-Tocopherol, (+)-y-Tocopherol]
S/S0: 1
B-HRP0 light intensity: 6,051
S1/S0: 1.8
B-HRP1 light intensity: 10,924
S2/S0: 278.7
B-HRP10 light intensity: 1,686,079
S3/S0: 1437.5
B-HRP100 light intensity: 8,698,069
S4/S0: 1699.4
B-HRP250 light intensity: 10,282,504

CCCCCCCCCCCCCCCC(=O)OC[C@H](O)[C@H]1OC(=O)C(O)=C1O [Ascorbic Acid 6-palmitate, L-Ascorbic acid 6-Palmitate]
S/S0: 1
B-HRP0 light intensity: 81
S1/S0: 4
B-HRP1 light intensity: 327
S2/S0: 502.4
B-HRP10 light intensity: 40,863
S3/S0: 100662.3
B-HRP100 light intensity: 8,187,204
S4/S0: 125193.6
B-HRP250 light intensity: 10,182,411
effect in the model system / utility as SSIA: demonstrating utility as SSIA

N[C@@H](CS)C(=O)O [Cysteine]
S/S0: 1
B-HRP0 light intensity: 35,695
S1/S0: 1.6
B-HRP1 light intensity: 58,203
S2/S0: 69.6
B-HRP10 light intensity: 2,483,411
S3/S0: 256.3
B-HRP100 light intensity: 9,147,371
S4/S0: 285.5
B-HRP250 light intensity: 10,190,505
effect in the model system / utility as SSIA: no effect

COc1cc(/C=C/C(=O)O)ccc1O [Ferulic acid]
S/S0: 1
B-HRP0 light intensity: 5,252
S1/S0: 2.3
B-HRP1 light intensity: 12,079
S2/S0: 136.2
B-HRP10 light intensity: 715,313
S3/S0: 1672.9
B-HRP100 light intensity: 8,785,865
S4/S0: 1950.5
B-HRP250 light intensity: 10,244,269

COc1ccc2[nH]cc(CCNC(C)=O)c2c1 [Melatonin]
S/S0: 1
B-HRP0 light intensity: 54,528
S1/S0: 1.3
B-HRP1 light intensity: 70,741
S2/S0: 43.7
B-HRP10 light intensity: 2,381,361
S3/S0: 173.7
B-HRP100 light intensity: 9,471,431
S4/S0: 190.2
B-HRP250 light intensity: 10,370,061
effect in the model system / utility as SSIA: no effect

CC(=O)N[C@@H](CS)C(=O)O [N-Ac-Cysteine, N-acetyl cysteine]
S/S0: 1
B-HRP0 light intensity: 43,647
S1/S0: 1.1
B-HRP1 light intensity: 47,636
S2/S0: 40.3
B-HRP10 light intensity: 1,757,607
S3/S0: 199
B-HRP100 light intensity: 8,685,795
S4/S0: 234.2
B-HRP250 light intensity: 10,219,869
effect in the model system / utility as SSIA: no effect

NNC(=O)c1cccnc1 [Nicotinic Hydrazide]
S/S0: 1
B-HRP0 light intensity: 42,260
S1/S0: 1.4
B-HRP1 light intensity: 58,356
S2/S0: 49.8
B-HRP10 light intensity: 2,106,471
S3/S0: 194.2
B-HRP100 light intensity: 8,205,320
S4/S0: 187.5
B-HRP250 light intensity: 7,923,092
effect in the model system / utility as SSIA: no effect
